Test results from patent US20200131123A1, “INDOLE-FORMAMIDE DERIVATIVE, PREPARATION METHOD THEREFOR AND USE THEREOF IN MEDICINE” (Jiangsu Hengrui Medicine Co., Ltd., priority 2017, published 2020).
Like-named read-outs stand apart in the source and are kept apart here.

How the values were obtained:
[1] = molecular target: T1, RORγ LBD (Homo sapiens, UniProt P51449); test: LanthaScreen TR-FRET RORγ co-activation system, effect on in vitro activity of RORγ; type: biochemical; details: for EC50: TR-FRET RORγ co-activation, for agonist the value refers to EC50, read-out: EC50/IC50 a (nM): EC50 (agonist); for Type: agonist or inverse agonist of RORγ
T1 construct: RORγ LBD was diluted with the complete buffer D to a concentration of 1 ng/μL; GST; purchased AB Vector
T1 sequence (P51449 269-508 limits assumed): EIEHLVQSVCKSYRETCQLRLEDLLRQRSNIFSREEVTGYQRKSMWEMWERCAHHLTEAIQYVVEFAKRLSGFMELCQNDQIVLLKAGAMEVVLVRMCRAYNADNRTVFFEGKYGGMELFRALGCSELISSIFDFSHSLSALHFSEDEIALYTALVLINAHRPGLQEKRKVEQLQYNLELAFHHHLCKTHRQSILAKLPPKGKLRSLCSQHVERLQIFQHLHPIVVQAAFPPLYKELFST
Method: 1. LanthaScreen® TR-FRET RORγ co-activation system (Life Technologies)
A complete buffer D (complete TR-FRET Coregulator) (Life Technologies) was formulated first, containing a final concentration of 5 mM DTT. The final concentration of DMSO was 2%. The test compound was serially diluted to 2× final concentration in the complete buffer D containing 2% of DMSO, and the maximum dose was […]. The test compound was added to the test wells of a 384-well plate (PerkinElmer) in 10 μl/well. Two parallel control wells were set up for each test compound at the same concentration. 4×RORγ LBD (AB Vector) was formulated. RORγ LBD was diluted with the complete buffer D to a concentration of 1 ng/μL, and added to the test wells of 384-well plate in 5 μl/well. The negative control well was 5 μL of complete buffer D without RORγ LBD. A mixed solution comprising 0.6 μM of fluorescein-D22 (4×) and 8 nM of terbium(Tb)-labeled anti-GST antibody (4×) (Life Technologies) was formulated with the complete buffer D, and 5 μL of the mixed solution was added to the 384-well plate. The total reaction system was 20 μL. The 384-well plate was gently shaken on a shaker, and incubated at room temperature in the dark for 2-4 hours.
Fluorescence readings were determined with Tecan Infinite M1000. The logarithmic curve of the ratio of the emission wavelength of 520 nm/495 nm to the concentration of the compound was plotted by GraphPad Prism 6.0 software. EC50/IC50 value of the test compound was calculated.

[2] = test system: IL-17A; test: IL-17A enzyme-linked immune quantitative assay in cytostim-activated human PBMC; type: cell-based; details: 72 h; IL-17A in supernatant of human PBMC, 3 days after drug treatment
Method: 1. Human peripheral blood mononuclear cells (PBMC) (Zenbio)
5. Human IL-17 enzyme-linked immunosorbent kit (R&D System)
Frozen human peripheral blood mononuclear cells (PBMC) were rapidly resuscitated in pre-warmed lymphocyte culture medium, and centrifuged at 1000 rpm for 10 min. The cell culture supernatant was removed. The cells were gently suspended in TexMACS medium and counted. The T cell activation reagent cytostim (10 μl/ml) was added in proportion to the cell suspension. Then, the cells were seeded in a 96-well cell culture plate at a density of 1×10^5 peripheral blood mononuclear cells/well. The test compounds were diluted in gradient with TexMACS medium, and added respectively to the test wells, with 2-3 parallel wells per group. A negative control well containing only cells without cytostim was provided to obtain the background reading. The cell culture plate was placed in a incubator at 5% carbon dioxide, 37° C. to incubate for 3 days. The cell culture supernatant was collected 3 days after drug treatment, and centrifuged to remove the suspension. Then, IL-17A in the supernatant was quantified with IL-17A enzyme-linked immunosorbent kit. EC50 values of the test compounds were calculated with GraphPad Prism 6.0.

[3] = for agonist the value refers to Emax(%), read-out: Emax(%)/maximum inhibition rate b: Emax(%) (agonist)

CCS(=O)(=O)c1ccc(C(CO)NC(=O)c2ccc3c(c2)cc(Cc2ccccc2C(F)(F)F)n3C(C)C)cc1 (stereo not shown) [Example 1, N-(1-(4-(Ethylsulfonyl)phenyl)-2-hydroxyethyl)-1-isopropyl-2-(2-(trifluoromethyl)benzyl)-1H-indole-5-carboxamide]
EC50 [1]: 64 nM | Type [1]: Agonist | Emax [1, 3]: 94%

CCS(=O)(=O)c1ccc(C(CO)NC(=O)c2ccc3c(c2)cc(Cc2ccc(Cl)cc2C(F)(F)F)n3CCF)cc1 (stereo not shown) [Example 2, 2-(4-Chloro-2-(trifluoromethyl)benzyl)-N-(1-(4-(ethylsulfonyl)phenyl)-2-hydroxyethyl)-1-(2-fluoroethyl)-1H-indole-5-carboxamide]
EC50 [2]: 90 nM | Emax [2]: 82%

CCS(=O)(=O)c1ccc([C@@H](CO)NC(=O)c2ccc3c(c2)cc(Cc2ccc(Cl)cc2C(F)(F)F)n3CCF)cc1 [Example 3, (S)-2-(4-Chloro-2-(trifluoromethyl)benzyl)-N-(1-(4-(ethylsulfonyl)phenyl)-2-hydroxyethyl)-1-(2-fluoroethyl)-1H-indole-5-carboxamide]
EC50 [2]: 169 nM | Emax [2]: 136%

CCS(=O)(=O)c1ccc([C@H](CO)NC(=O)c2cc3cc(Cc4ccc(Cl)cc4C(F)(F)F)n(CCF)c3cc2F)cc1 [Example 5, (R)-2-(4-Chloro-2-(trifluoromethyl)benzyl)-N-(1-(4-(ethylsulfonyl)phenyl)-2-hydroxyethyl)-6-fluoro-1-(2-fluoroethyl)-1H-indole-5-carboxamide]
EC50 [1]: 334 nM | Type [1]: Agonist | Emax [1, 3]: 110%

CCS(=O)(=O)c1ccc([C@H](CO)NC(=O)c2cc3cc(Cc4ccc(Cl)cc4C(F)(F)F)n(C4CC4)c3cc2F)cc1 [Example 6, (R)-2-(4-Chloro-2-(trifluoromethyl)benzyl)-1-cyclopropyl-N-(1-(4-(ethylsulfonyl)phenyl)-2-hydroxyethyl)-6-fluoro-1H-indole-5-carboxamide]
EC50 [1]: 79 nM | Type [1]: Agonist | Emax [1, 3]: 105%

CCS(=O)(=O)c1ccc([C@H](CO)NC(=O)c2ccc3c(c2)cc(CN2CCOCC2C(F)(F)F)n3CCF)cc1 (stereo partly drawn) [Example 7, N—((R)-1-(4-(Ethylsulfonyl)phenyl)-2-hydroxyethyl)-1-(2-fluoroethyl)-2-((3-(trifluoromethyl)morpholino)methyl)-1H-indole-5-carboxamide]
EC50 [1]: 80 nM | Type [1]: Agonist | Emax [1, 3]: 84%

CCS(=O)(=O)c1ccc([C@H](CO)NC(=O)c2ccc3c(c2)cc(Cc2ccc(Cl)cc2C(F)(F)F)n3C2CC2)cc1 [Example 11, (R)-2-(4-Chloro-2-(trifluoromethyl)benzyl)-1-cyclopropyl-N-(1-(4-(ethylsulfonyl)phenyl)-2-hydroxyethyl)-1H-indole-5-carboxamide]
EC50 [2]: 276 nM | Emax [2]: 72% | EC50 [1]: 22 nM | Emax [1, 3]: 94%

O=C(N[C@@H](CO)c1ccc(S(=O)(=O)NC2CC2)cc1)c1ccc2c(c1)cc(Cc1ccc(Cl)cc1C(F)(F)F)n2CCF [Example 12, (R)-2-(4-Chloro-2-(trifluoromethyl)benzyl)-N-(1-(4-(N-cyclopropylsulfamoyl)phenyl)-2-hydroxyethyl)-1-(2-fluoroethyl)-1H-indole-5-carboxamide]
EC50 [2]: 25 nM | Emax [2]: 71% | EC50 [1]: 13 nM | Type [1]: Agonist | Emax [1, 3]: 89%

O=C(N[C@@H](CO)c1ccc(S(=O)(=O)CC2CC2)cc1)c1ccc2c(c1)cc(Cc1ccc(Cl)cc1C(F)(F)F)n2CCF [Example 13, (R)-2-(4-Chloro-2-(trifluoromethyl)benzyl)-N-(1-(4-((cyclopropylmethyl)sulfonyl)phenyl)-2-hydroxyethyl)-1-(2-fluoroethyl)-1H-indole-5-carboxamide]
EC50 [2]: 27 nM | Emax [2]: 65% | EC50 [1]: 69 nM | Type [1]: Agonist | Emax [1, 3]: 96%

O=C(N[C@@H](CO)c1ccc(S(=O)(=O)CC2CC2)cc1)c1ccc2c(c1)cc(Cc1ccc(F)cc1C(F)(F)F)n2CCF [Example 14, (R)—N-(1-(4-((Cyclopropylmethyl)sulfonyl)phenyl)-2-hydroxyethyl)-2-(4-fluoro-2-(trifluoromethyl)benzyl)-1-(2-fluoroethyl)-1H-indole-5-carboxamide]
EC50 [2]: 42 nM | Emax [2]: 99% | EC50 [1]: 138 nM | Type [1]: Agonist | Emax [1, 3]: 99%

O=C(N[C@@H](CO)c1ccc(S(=O)(=O)C2CC2)cc1)c1ccc2c(c1)cc(Cc1ccc(Cl)cc1C(F)(F)F)n2CCF [Example 15, (R)-2-(4-Chloro-2-(trifluoromethyl)benzyl)-N-(1-(4-(cyclopropylsulfonyl)phenyl)-2-hydroxyethyl)-1-(2-fluoroethyl)-1H-indole-5-carboxamide]
EC50 [1]: 124 nM | Type [1]: Agonist | Emax [1, 3]: 109%

CCS(=O)(=O)c1ccc([C@H](COC)NC(=O)c2ccc3c(c2)cc(Cc2ccc(Cl)cc2C(F)(F)F)n3CCF)cc1 [Example 16, (R)-2-(4-Chloro-2-(trifluoromethyl)benzyl)-N-(1-(4-(ethylsulfonyl)phenyl)-2-methoxyethyl)-1-(2-fluoroethyl)-1H-indole-5-carboxamide]
EC50 [2]: 8 nM | Emax [2]: 99% | EC50 [1]: 18 nM | Type [1]: Agonist | Emax [1, 3]: 97%

CCS(=O)(=O)c1ccc([C@H](CO)NC(=O)c2ccc3c(c2)cc(Cc2ccc(C(F)(F)F)cc2)n3CCF)cc1 [Example 17, (R)-2-(4-(trifluoromethyl)benzyl)-N-(1-(4-(ethylsulfonyl)phenyl)-2-hydroxyethyl)-1-(2-fluoroethyl)-1H-indole-5-carboxamide]
IC50 [1]: 29 nM | Type [1]: Inverse agonist | Emax ([1]; read-out: Emax(%)/maximum inhibition rate b: maximum inhibition rate (inverse agonist)): 67%
